experiment: Human HepG2 cell viability assay in 384 well format; type: toxicity, cell-based; parameters: dose 125 nL, time 70.5 hour; concentration not given beside the values; conditions: HepG2 cells, read-out: Inhibition

| SMILES | cytotoxicity at 70.5 h |
| --- | --- |
| Cn1cnnc1CNC(=O)C1CCCN(Cc2ccccc2)C1 (centres undefined) | 0.292% |
| NC(=O)CC1CCN(C(=O)CCOc2ccc(Cl)cc2)CC1 | -1.2% |
| CS(=O)(=O)NC[C@]12COC[C@H]1CN(C(=O)C1CCCCC1)C2 | -8.19% |
| O=C1CO[C@@H]2CN(Cc3cccs3)C[C@H]2N1Cc1cccnc1 | -10.9% |
| CC(C)Cc1nc(CSCC(=O)N2CCC(C)CC2)no1 | 3.72% |
| Clc1cncc(N2CCCC2c2nnc3n2CCCCC3)n1 (centres undefined) | -17.1% |
| N#Cc1cc(NS(=O)(=O)CC2CCCCO2)ccc1F (centres undefined) | -0.517% |
| CCOc1ccc2nc(CN3CCC(CN)C3)ccc2c1 (centres undefined) | -2.57% |
| Cc1cc(NC(=O)CN2CCn3c(C)nnc3C2)no1 | -7.43% |
| COCCC(=O)N1CCC(c2nc(O)cc(-c3ccncc3)n2)C1 (centres undefined) | -11.8% |
| Cc1occc1C(=O)NCC(=O)NCCOc1cccc(Cl)c1 | -11.3% |
| O=C(c1cccc2c1OCO2)N1CCCC(n2ccnc2)C1 (centres undefined) | -10.3% |
| Cc1cc(C)n(C2CN(CC(=O)N(C)Cc3ccc(C)o3)C2)n1 | -9.43% |
| Cc1ccccc1CC(=O)N1CCN(C2CCOC2=O)CC1 (centres undefined) | -5.25% |
| Cc1cc(N(C)Cc2ncc[nH]2)nc(-c2cccnc2)n1 | -11.2% |
| O=C(Cc1ccc(O)c(Cl)c1)N1CCCCC1CCn1cccn1 (centres undefined) | -4.41% |
| Cc1cnn(CCNCc2nccn2CC(F)(F)F)c1 | 1.15% |
| COCCc1noc(CN(C)c2nccc(C)n2)n1 | -6.87% |
| CCCc1nc(NCCCO)c2c(n1)c(C)nn2CC | -14% |
| Cc1nc(C)c(C(C)NCc2c(C)nn(CC(C)C)c2N(C)C)s1 (centres undefined) | -3.31% |
| Cc1nc(CNC(=O)N2CCN(c3ccc(Cl)cn3)CC2)sc1C | -3.28% |
| Cc1cccc(C(=O)N2CCn3cc(CN4CCCCC4)nc3C2)n1 | -10.3% |
| CCN(C(c1cccnc1)c1ccc2c(c1)CCC2)S(C)(=O)=O (centres undefined) | 3.11% |

| SMILES | cytotoxicity at 70.5 h |
| --- | --- |
| CCc1nsc(N2CCn3c(nnc3C(F)(F)F)C2)n1 | 2.89% |
| COc1cc(CNCC(O)c2ccc(F)c(F)c2)cc2c1OCO2 (centres undefined) | 29.9% |
| Cc1nc(NC(=O)C(C)N2CCN(c3ncccn3)CC2)sc1C (centres undefined) | -8.18% |
| O=C(NCCc1cccs1)[C@]12COC[C@H]1CN(c1ncccn1)C2 | -13.7% |
| Cn1cc(CN2Cc3cn(C)nc3C(COCC3CC3)C2)cn1 (centres undefined) | -5.92% |
| O=C(NCc1nc(-c2ncccn2)no1)c1ccc(C2CCCO2)s1 (centres undefined) | 11.9% |
| CNC(=O)C1(C)CN(Cc2cn(C)c3ccc(F)cc23)CCO1 (centres undefined) | -9.03% |
| NC(=O)c1ccccc1NC(=O)CCN1CCN(CCO)CC1 | -10.4% |
| CCc1cc(N(C)Cc2cc[nH]n2)n2nc(C)c(C)c2n1 | -4.44% |
| COc1cccc(CCC2CCCN(C(=O)c3ccc(=O)n(C)n3)C2)c1 (centres undefined) | -6.31% |
| CCc1nc(C2CCCN2C(=O)c2nc(C)n3ccccc23)no1 (centres undefined) | -7.79% |
| Cn1ccc2c(C(=O)NCCCN3CCOCC3)cccc21 | 11.5% |
| Cc1ccccc1C1(CNc2nnc(C)c(C)c2C#N)CCOCC1 | -6.42% |
| CC(=O)N1CCC2(C1)CN(S(=O)(=O)c1ccccc1)C2 | -7.01% |
| CCc1nc(-c2ccc(NC(=O)N3CCCC3)cc2)no1 | -19.3% |
| FC(F)(F)C1CN(Cc2cccc(-c3ccccn3)c2)CCO1 (centres undefined) | -6.31% |
| Cc1cc(C)nc(N2CC[C@H](Oc3ccccc3F)[C@@H](O)CC2)n1 | -3.75% |
| CN(C)c1cc(CNC(=O)c2ccc(F)cc2F)ccn1 | -10.5% |
| CN(CCNC(=O)c1cnc(-c2ccncc2)nc1)S(C)(=O)=O | -7.17% |
| CC(C)NC(=O)Nc1ccc(CNCc2cccc(OC(F)F)c2)cc1 | 29.1% |
| CCOc1ccc(C(F)(F)F)cc1NC(=O)NCc1noc(C)n1 | -8.58% |
| COCc1nc2n(n1)CCCC2Nc1nc(C)ns1 (centres undefined) | 24.4% |
| CC(C)NC(=O)NCCCc1cccc(F)c1 | 0.142% |

| SMILES | cytotoxicity at 70.5 h |
| --- | --- |
| Cc1cc(C)n(C2CN(Cc3noc(C4CC4)n3)C2)n1 | 20.6% |
| CC(C#N)(NC(=O)Cn1cc(I)cn1)C1CC1 (centres undefined) | 6.23% |
| O=C(Nc1ccc2c(c1)C(=O)NC2=O)c1cccs1 | -4.03% |
| Cc1ccc(CC(=O)N2CCn3cc(Cn4cncn4)nc3C2)cc1 | -7.66% |
| c1cc(-c2nnc([C@H]3CCN(C4CCCCC4)C3)o2)ccn1 | -0.595% |
| CN(C)C(C(=O)N1CCC(C#N)CC1)c1ccccc1F (centres undefined) | -5.19% |
| c1cnn(CCC2CCN(Cc3ccc4[nH]ccc4c3)CC2)c1 | 0.43% |
| CC(C)CN1CC(C(=O)NCc2cccnc2-n2cccn2)CC1=O (centres undefined) | -8.02% |
| CCCn1c(N2CCCCC2)nc2c(C)nn(C)c2c1=O | 15.3% |
| Cc1ncoc1C(=O)N1CCCC(C(=O)c2cccc(OC(C)C)c2)C1 (centres undefined) | -8.43% |
| O=C1CC(c2ccc(O)cc2)c2c(c(C(=O)O)cn2-c2ccccc2)N1 (centres undefined) | -10.6% |
| CC(=O)N1[C@@H](C(=O)NCC2CC2)C[C@@H]2CN(Cc3ccco3)C[C@@H]21 | 0.192% |
| CC(C)c1nc2n(n1)CC(NCc1nc(-c3ccccn3)no1)CC2 (centres undefined) | -7.49% |
| CCSc1ccccc1C(=O)NCCn1nc(C(F)(F)F)n(C)c1=O | -4.82% |
| CCc1noc(CN2C[C@H]3CC[C@@H]2CN(C2Cc4ccccc4C2)C3)n1 | 4.55% |
| COCCCNC(=O)Nc1cc(-c2ccccc2C)nn1CCO | -5.71% |
| CS(=O)(=O)N1CC2(CCN(C3CCCCC3)CC2)Cc2ccccc21 | -7.63% |
| COCCN1CCN(C(=O)c2ccc(C)cc2F)[C@H]2CS(=O)(=O)C[C@H]21 | -8.53% |
| Cc1noc(C)c1CC(=O)N1CCN(Cc2cscn2)CC1 | -1.94% |
| Cc1ccccc1C(CC(=O)N1CCc2sccc2C1)NC(N)=O (centres undefined) | -21.9% |
| Cc1c(C)n(CC(O)CN2CCC(C)CC2)c2c(Cl)cccc12 (centres undefined) | 14.8% |
| CC(=O)NCC(=O)N1CCc2c(CNc3ncccn3)cncc2C1 | -2.19% |
| CSC(C)C(=O)N1CCCN(Cc2cnn(C(C)C)c2)CC1 (centres undefined) | -12% |

| SMILES | cytotoxicity at 70.5 h |
| --- | --- |
| O=C1CN(C(=O)C2CCOCC2)CCN1Cc1ccc(Cl)cc1 | 0.576% |
| O=C(NCc1cccs1)NCC(O)c1ccoc1 (centres undefined) | -3.33% |
| C=Cn1ncc(CN2C[C@@H]3CCCN3C[C@H]2CCSC)c1C | -12.3% |
| Cn1cc(Br)cc1C(=O)NC1(C#N)CC1 | 15.5% |
| O=C(c1ccc(O)nc1)N1CCC(Nc2cccnn2)CC1 | -8.37% |
| CCC[C@H]1CN(C2CCOCC2)C[C@@H]1NC(=O)CCc1cnccn1 | 6.02% |
| Cc1cnc(CN2CCN(C(C)c3nc(C4CC4)no3)CC2)cn1 (centres undefined) | -6.13% |
| O=C(C1CC1)N1CCC2(COCc3cnc(N4CCOCC4)nc32)C1 (centres undefined) | -12.6% |
| O=C(O)c1ccccc1CN1CCC(c2ccnc3ccnn23)CC1 | -4.52% |
| CCN(CC1CCCO1)S(=O)(=O)N1CCCCCC1 (centres undefined) | -8.65% |
| CN(Cc1ccccc1)CC(O)Cn1cnc2c(cnn2C)c1=O (centres undefined) | -5.87% |
| CSCCN1CCC(NC(=O)c2cccc(C3CCCNC3)c2)CC1 (centres undefined) | -24.6% |
| Cc1ccc(CNC(=O)c2oc3ccccc3c2CN(C)C)n1C | -6.83% |
| CN(CCCOc1ccccc1)S(=O)(=O)N1CCOCC1 | -12.8% |
| CC1(C)Cc2ccc(C(=O)NC3CCS(=O)(=O)C3)c(O)c2O1 (centres undefined) | 12.1% |
| CCC(C)NC(=O)Cn1ccc2c(C)nn(CC)c2c1=O (centres undefined) | 30.5% |
| CS(=O)(=O)Nc1cccc(CNC(=O)CCNC(=O)c2cccs2)c1 | 23.6% |
| COc1ccc(-n2ncc(C(=O)NCC3COC(C)(C)O3)c2N)cc1 (centres undefined) | -5.98% |
| COc1ncccc1CN1Cc2nnn(C)c2C(COCC2CC2)C1 (centres undefined) | 1.61% |
| CCC1(C)Cc2ccccc2-c2nc(NCCO)nc(O)c21 (centres undefined) | -26.4% |
| NC(=O)COCCNC(=O)Nc1sc2ccccc2c1Cl | -9.32% |
| c1ccc(Cc2nnc(CN3CCOC(Cn4cccn4)C3)o2)cc1 (centres undefined) | 0.701% |
| COc1ccccc1C(O)CNCc1c(C(C)C)nn(C)c1N(C)C (centres undefined) | 13.7% |

| SMILES | cytotoxicity at 70.5 h |
| --- | --- |
| Cc1noc(C)c1S(=O)(=O)N1C[C@@H](C(=O)O)[C@H](c2ccccn2)C1 | -10.9% |
| CCC(C)N1C(=O)c2ccc(C(=O)NCCc3c[nH]cn3)cc2C1=O (centres undefined) | -2.09% |
| Cc1noc(C)c1CN1CCC2(CC1)C(c1cnn(C)c1)CC(=O)N2C (centres undefined) | -7.83% |
| O=C(O)C(c1ccc(Cl)c(F)c1)N1CCN(Cc2ccccn2)CC1 (centres undefined) | -2.57% |
| CC(=O)N1CCC(c2cncc(N3CCC(O)C3)n2)CC1 (centres undefined) | -2.45% |
| NC(=O)CCC1CCCN(c2ccc3c(Cl)ccnc3c2F)C1 (centres undefined) | -6.43% |
| OC1(CNCc2csc(-c3ncccn3)n2)CCCNC1 (centres undefined) | -5.29% |
| Cc1cccc(N2CCN(C(=O)CNCCn3cc(C)cn3)CC2)c1 | 45% |
| OC(CN1CCOCC1)c1cc(Cl)ccc1Cl (centres undefined) | 9.36% |
| O=C(NS(=O)(=O)c1ccc(C2CCCCC2)cc1)C1COCCO1 (centres undefined) | -4.85% |
| O=C1CC[C@]2(CC[C@@H](NCc3ccc4c(c3)OCO4)CC2)N1 | 19.9% |
| Cc1ccc(-c2nc(CC3CCN(C)CC3)no2)cc1N1CCNC1=O | -7.33% |
| O=C(Nc1cc(-c2ccccn2)no1)C1CC1 | 11.7% |
| CCCC(=O)N1CC[C@@H]2[C@H](CC1)N(Cc1cccnc1)CCS2(=O)=O | 4.18% |
| Cc1oc(-c2ccco2)nc1CC(=O)N1CCN(C2CCC2)CC1 | -1.12% |
| COc1cccc(OCC(=O)N(C)c2cccnc2N(C)C)c1 | -8.02% |
| Cc1ncccc1Oc1nccnc1C1CCCN(C(C)C)C1 (centres undefined) | -6.39% |
| Cc1nnc([C@@H]2CC[C@@H]3[C@@H](CCN3S(C)(=O)=O)O2)o1 | -10.9% |
| Cc1nc(N2CCN(C)CC2)ncc1C(=O)N1CCN(C)CC1 | -4.76% |
| Cc1ccc(N2CCN(C(=O)CN3C[C@@H]4CC[C@H]3C4)CC2=O)cc1 | 24.1% |
| CCCn1ccnc1CN1CCCC(CC)(CO)C1 (centres undefined) | 26.9% |
| CC(C)c1nnsc1CNC(=O)C1CCN(C(C)C)CC1 | 1.46% |

Reference: ChEMBL document CHEMBL3507680, “University of Dundee, Gates Library screen for HepG2 cell viability”
